The term MIC denotes the lowest concentration found to suppress growth.

Each structure is given as a SMILES string. Some results are limits rather than exact numbers.

For test [1], the system named is Staphylococcus aureus. Description: Ability of 40 ug to enlarge the zone of inhibition produced by 100 microg of methicillin in disk assay using Staphylococcus aureus strain 447; No synergy. The class given is functional, organism-based.
Test [2] deals with Staphylococcus aureus. Nature of the test: Minimal synergizing concentration required to inhibit growth of Staphylococcus aureus strain 447 in the presence of 4 ug/mL of methicillin. The class given is functional.
Test [3] relates to Staphylococcus aureus. Description: Minimum concentration required to inhibit growth of methicillin sensitive Staphylococcus aureus strain 446. The test is classed as functional.
Test [4] relates to Staphylococcus aureus. Nature of the test: Ability of 40 ug to enlarge the zone of inhibition produced by 100 microg of methicillin in disk assay using Staphylococcus aureus strain 447; Synergy. The class given is functional, organism-based.
The subject of test [5] is Staphylococcus aureus. Description: Ability of 40 ug to enlarge the zone of inhibition produced by 100 microg of methicillin in disk assay using Staphylococcus aureus strain 447; synergy. The test is classed as functional, organism-based.
Test [6] deals with Staphylococcus aureus. Nature of the test: Minimum concentration required to inhibit growth of methicillin resistant Staphylococcus aureus strain 447. The test is classed as functional.
Setting [7] is: Staphylococcus aureus, read-out: MIC.

Take `O=C1N[C@@H](C(c2ccccc2)c2ccccc2)C(=O)N2CCCC2C(=O)NC(CO)(Cc2ccccc2)C(=O)Nc2ccccc21` (single isomer, unassigned; 1a) [listing 1 of 2 here]: the Synergy with methicillin result with Staphylococcus aureus [1] was “No synergy”.

`O=C1N[C@@H](C(c2ccccc2)c2ccccc2)C(=O)N2CCCC2C(=O)NC(CO)(Cc2ccccc2)C(=O)Nc2ccccc21` (single isomer, unassigned; 1b) [listing 1 of 2 here]: the MSC with Staphylococcus aureus [2] was 100 µg/mL. In addition, the MIC in the test on Staphylococcus aureus [3] (setting [7]) was more than 100 µg/mL.

Regarding `O=C1N[C@@H](C(c2ccccc2)c2ccccc2)C(=O)N2CCC[C@@H]2C(=O)NCc2ccccc2-c2ccccc21`, the MSC with Staphylococcus aureus [2] was more than 100 µg/mL. For the same molecule, the Synergy with methicillin result with Staphylococcus aureus [1] was “No synergy”. Further, the MIC with Staphylococcus aureus [3] (setting [7]) was more than 100 µg/mL.

In the case of `O=C1N[C@@H](C(c2ccccc2)c2ccccc2)C(=O)N2CCCC2C(=O)N[C@@](CO)(Cc2ccccc2)C(=O)Nc2ccccc21` (single isomer, unassigned), the MSC in the test on Staphylococcus aureus [2] was more than 128 µg/mL. Moreover, the MIC with Staphylococcus aureus [3] was more than 128 µg/mL.

Turning to `O=C1N[C@@H](C(c2ccccc2)c2ccccc2)C(=O)N2CCCC2C(=O)NC(CO)(Cc2ccccc2)C(=O)Nc2ccccc21` (single isomer, unassigned; 1b) [listing 2 of 2 here], the Synergy with methicillin entry with Staphylococcus aureus [4] is “Synergy”.

As to `O=C(N[C@@H](C(=O)N1CCC[C@H]1C(=O)N[C@H](CO)Cc1ccccc1)C(c1ccccc1)c1ccccc1)OCc1ccccc1`, the MSC with Staphylococcus aureus [2] worked out at 12.5 µg/mL. In the test on Staphylococcus aureus [5], the Synergy with methicillin entry was “synergy”. Also, in the test on Staphylococcus aureus [3] (setting [7]), the MIC is more than 100 µg/mL.

As to `O=C1N[C@@H](C(c2ccccc2)c2ccccc2)C(=O)N2CCCC2C(=O)NC(CO)(Cc2ccccc2)C(=O)Nc2ccccc21` (single isomer, unassigned; 1a) [listing 2 of 2 here], the MSC in the test on Staphylococcus aureus [2] is more than 100 µg/mL. Besides, the results for the MIC with Staphylococcus aureus [6] (setting [7]) and in the test on Staphylococcus aureus [3] (setting [7]) were more than 100 µg/mL and more than 128 µg/mL, respectively.

`O=C1N[C@@H](C(c2ccccc2)c2ccccc2)C(=O)N2CCCC2C(=O)N[C@](CO)(Cc2ccccc2)C(=O)Nc2ccccc21` (single isomer, unassigned): the MSC in the test with Staphylococcus aureus [2] was more than 128 µg/mL. The minimum inhibitory concentration (MIC) against Staphylococcus aureus [6] was more than 128 µg/mL. In the test on Staphylococcus aureus [4], the Synergy with methicillin result is “Synergy”.
